Experiment: xn = mol fraction of the nth substance listed
Settings: 101 kPa, Liquid; for speed of sound: Pulse-echo method

Cc1cccc(Cl)c1 [3-chlorotoluene] + CCCCCCCCCCO
Settings | mass density, 298.15 K [kg/m3] | mass density, 303.15 K [kg/m3] | speed of sound, 298.15 K [m/s] | speed of sound, 303.15 K [m/s] | viscosity, 298.15 K [mPa·s] | viscosity, 303.15 K [mPa·s]
x1 = 0.0745 | 837.98 | 834.43 | 1371.6 | 1355.2 | 10.08 | 8.289
x1 = 0.1337 | 847.61 | 844.01 | 1364.4 | 1347 | 8.723 | 7.171
x1 = 0.2017 | 859.18 | 855.5 | 1356 | 1337.4 | 7.28 | 6.013
x1 = 0.2741 | 872.19 | 868.42 | 1347 | 1327.4 | 5.927 | 4.905
x1 = 0.3471 | 886.08 | 882.21 | 1338 | 1318 | 4.762 | 3.977
x1 = 0.4139 | 899.55 | 895.58 | 1329.9 | 1309.9 | 3.862 | 3.261
x1 = 0.4616 | 909.68 | 905.65 | 1324.3 | 1304.4 | 3.322 | 2.821
x1 = 0.5532 | 930.44 | 926.26 | 1314.9 | 1295.5 | 2.496 | 2.161
x1 = 0.6282 | 948.88 | 944.59 | 1308.1 | 1289.3 | 1.985 | 1.744
x1 = 0.6772 | 961.72 | 957.36 | 1304.1 | 1285.8 | 1.724 | 1.523
x1 = 0.7447 | 980.55 | 976.11 | 1300 | 1281.9 | 1.429 | 1.282
x1 = 0.8245 | 1004.78 | 1000.26 | 1296.6 | 1278.3 | 1.17 | 1.063
x1 = 0.8876 | 1025.62 | 1021.06 | 1296.2 | 1276.7 | 1.016 | 0.934
x1 = 0.9433 | 1045.43 | 1040.84 | 1297.1 | 1276.5 | 0.906 | 0.844
x1 = 1 | 1067.29 | 1062.81 | 1298.3 | 1280.1 | 0.798 | 0.746

From the NIST ThermoML archive (doi:10.1007/s10765-011-0995-x)
